{"source": "paper PMC11876671", "about": "“Investigating blood–brain barrier penetration and neurotoxicity of natural products for central nervous system drug development” (Scientific Reports, 2025)", "key": {"[1]": {"assay": "in vitro", "settings": "PAMPA, PAMPA-BBB Pe"}, "[2]": {"tested_on": "GFP-labeled iPSC-derived human cortical glutamatergic neurons", "assay": "cells", "assay_type": "cell-based", "settings": "Homo sapiens, Neuron"}, "[3]": {"tested_on": "GFP-labeled iPSC-derived human cortical glutamatergic neurons", "assay": "cells", "settings": "Neuron, 48 h"}, "[4]": {"settings": "Table S1, 60 min, room temperature, 0.05 mM"}, "[5]": {"settings": "Table S1, total neurite length, 48 hr, head prints no unit, µM per Table 1 and Fig. 5, read-out: TNL AC50 (48 hr)"}, "[6]": {"settings": "total neurite length, 48 h treatment, read-out: TNL AC50 (48 h)"}, "[7]": {"settings": "read-out: Viability AC50 (48 h)"}, "[8]": {"settings": "read-out: Viability AC50 (48hr)"}, "[9]": {"settings": "Table 1, 60 min, room temperature, 0.05 mM"}, "[10]": {"settings": "Table S2: compounds exhibiting moderate to high PAMPA-BBB permeability"}}, "note": "Read-outs that look alike come from different tables or passages of the source."}
{"smiles": "CCC(=O)CCCCC[C@@H]1NC(=O)[C@H]2CCCCN2C(=O)[C@H]([C@@H](C)CC)NC(=O)[C@H](Cc2cn(OC)c3ccccc23)NC1=O", "note": "[Apicidin]", "values": [{"measurement": "Papp", "setting": "[1]; [4]", "result": 55.8, "unit": "×10⁻⁶ cm/s"}, {"measurement": "AC50", "setting": "[2]; [5]", "result": 4.84, "unit": "µM"}, {"measurement": "AC50", "setting": "[2]; [6]", "result": 4.84, "unit": "µM"}, {"measurement": "AC50", "setting": "[3]; [7]", "result": 2.17, "unit": "µM"}, {"measurement": "AC50", "setting": "[3]; [8]", "result": 2.17, "unit": "µM"}, {"measurement": "PAMPA-BBB Pe", "setting": "[9]", "result": "55.75 10 × 10^− 6 cm/sec"}, {"measurement": "PAMPA-BBB Pe", "setting": "[10]", "result": "56 10^-6 cm/sec"}]}
{"smiles": "COc1cc(C2c3cc4c(c(O)c3CC3COC(=O)C32)OCO4)cc(OC)c1O", "note": "(stereo not drawn) [Alpha-Peltatin]", "values": [{"measurement": "Papp", "setting": "[1]; [4]", "result": 14.2, "unit": "×10⁻⁶ cm/s"}, {"measurement": "AC50", "setting": "[2]; [5]", "result": 0.003, "unit": "µM"}, {"measurement": "AC50", "setting": "[3]; [8]", "result": 0.002, "unit": "µM"}]}
{"smiles": "COc1ccc(CC(=O)c2ccc(O)cc2O)cc1", "note": "[ONONETIN]", "values": [{"measurement": "Papp", "setting": "[1]; [4]", "result": 172, "unit": "×10⁻⁶ cm/s"}, {"measurement": "AC50", "setting": "[2]; [5]", "result": 24.5, "unit": "µM"}, {"measurement": "PAMPA-BBB Pe", "setting": "[10]", "result": "172 10^-6 cm/sec"}]}
{"smiles": "C[C@H]1COC2=C1C(=O)C(=O)c1c2ccc2c1CCCC2(C)C", "note": "[Cryptotanshinone]", "values": [{"measurement": "Papp", "setting": "[1]; [4]", "result": 12, "unit": "×10⁻⁶ cm/s"}, {"measurement": "AC50", "setting": "[2]; [5]", "result": 21.1, "unit": "µM"}, {"measurement": "AC50", "setting": "[3]; [8]", "result": 19.8, "unit": "µM"}]}
{"smiles": "O=C1NC(=O)C(c2c[nH]c3ccccc23)=C1c1c[nH]c2ccccc12", "note": "[Bisindolylmaleimide IV]", "values": [{"measurement": "Papp", "setting": "[1]; [4]", "result": "> 654", "unit": "×10⁻⁶ cm/s"}, {"measurement": "AC50", "setting": "[2]; [5]", "result": 10.6, "unit": "µM"}, {"measurement": "AC50", "setting": "[3]; [8]", "result": 13.9, "unit": "µM"}]}
{"smiles": "C=C(C)[C@@H]1CCC2=CC(=O)C[C@@H](C)[C@]2(C)C1", "note": "[Nootkatone]", "values": [{"measurement": "Papp", "setting": "[1]; [4]", "result": 63.3, "unit": "×10⁻⁶ cm/s"}, {"measurement": "AC50", "setting": "[2]; [5]", "result": 13.1, "unit": "µM"}, {"measurement": "AC50", "setting": "[3]; [8]", "result": 3.98, "unit": "µM"}, {"measurement": "PAMPA-BBB Pe", "setting": "[10]", "result": "63 10^-6 cm/sec"}]}
{"smiles": "Cc1c(O)c(O)cc2c1CC=C1[C@@]2(C)CC[C@@]2(C)[C@H]3C[C@](C)(C(=O)O)CC[C@]3(C)CC[C@]12C", "note": "[NCGC00264082-02]", "values": [{"measurement": "Papp", "setting": "[1]; [4]", "result": 288, "unit": "×10⁻⁶ cm/s"}, {"measurement": "AC50", "setting": "[2]; [5]", "result": 2.37, "unit": "µM"}, {"measurement": "AC50", "setting": "[3]; [8]", "result": 4.3, "unit": "µM"}, {"measurement": "PAMPA-BBB Pe", "setting": "[10]", "result": "288 10^-6 cm/sec"}]}
{"smiles": "CC(/C=C/C(=O)NO)=C\\[C@@H](C)C(=O)c1ccc(N(C)C)cc1", "note": "[Trichostatin A]", "values": [{"measurement": "Papp", "setting": "[1]; [4]", "result": 54.7, "unit": "×10⁻⁶ cm/s"}, {"measurement": "AC50", "setting": "[2]; rounded values, read-out: AC50 (neurite outgrowth inhibition)", "result": 1.7, "unit": "µM"}, {"measurement": "AC50", "setting": "[2]; [6]", "result": 1.66, "unit": "µM"}, {"measurement": "AC50", "setting": "[3]; [7]", "result": 0.472, "unit": "µM"}, {"measurement": "PAMPA-BBB Pe", "setting": "[9]", "result": "54.74 10 × 10^− 6 cm/sec"}, {"measurement": "PAMPA-BBB Pe", "setting": "[10]", "result": "55 10^-6 cm/sec"}]}
{"smiles": "COc1ccc(/C=C/C(=O)c2ccc(O)cc2O)cc1", "note": "[2',4'-DIHYDROXY-4-METHOXYCHALCONE]", "values": [{"measurement": "Papp", "setting": "[1]; [4]", "result": 357, "unit": "×10⁻⁶ cm/s"}, {"measurement": "AC50", "setting": "[2]; [5]", "result": 37.2, "unit": "µM"}, {"measurement": "AC50", "setting": "[3]; [8]", "result": 21.5, "unit": "µM"}, {"measurement": "PAMPA-BBB Pe", "setting": "[10]", "result": "357 10^-6 cm/sec"}]}
{"smiles": "CC(=O)O[C@@H]1C[C@@]2(C)[C@H](c3ccoc3)C[C@H]3O[C@]32[C@]2(C)C(=O)C(O)=C3C(C)(C)C(=O)C=C[C@]3(C)C12", "note": "(stereo partly shown) [NCGC00179158-03]", "values": [{"measurement": "Papp", "setting": "[1]; [4]", "result": 17.6, "unit": "×10⁻⁶ cm/s"}, {"measurement": "Papp", "setting": "[1]; [10]", "result": 18, "unit": "×10⁻⁶ cm/s"}, {"measurement": "AC50", "setting": "[2]; [5]", "result": 2.77, "unit": "µM"}, {"measurement": "AC50", "setting": "[3]; [8]", "result": 2.35, "unit": "µM"}]}
{"smiles": "COC(=O)[C@H]1[C@H]2C[C@@H]3c4[nH]c5cc(OC)ccc5c4CCN3C[C@H]2C[C@@H](OC(=O)c2cc(OC)c(OC)c(OC)c2)[C@@H]1OC", "note": "[Reserpine, reference compound]", "values": [{"measurement": "Papp", "setting": "[1]", "result": 90.1, "unit": "×10⁻⁶ cm/s"}, {"measurement": "AC50", "setting": "[2]; [5]", "result": 31.8, "unit": "µM"}, {"measurement": "AC50", "setting": "[3]; [8]", "result": 35.2, "unit": "µM"}, {"measurement": "PAMPA-BBB Pe", "setting": "PAMPA", "result": "90 10^-6 cm/sec"}]}
{"smiles": "CC(C)c1cc2c(c(O)c1O)[C@@]13CCCC(C)(C)[C@@H]1C[C@@H]2OC3=O", "note": "[Carnosol]", "values": [{"measurement": "Papp", "setting": "[1]; [4]", "result": 32.8, "unit": "×10⁻⁶ cm/s"}, {"measurement": "AC50", "setting": "[2]; [5]", "result": 17.8, "unit": "µM"}, {"measurement": "AC50", "setting": "[3]; [8]", "result": 26.4, "unit": "µM"}, {"measurement": "PAMPA-BBB Pe", "setting": "[10]", "result": "33 10^-6 cm/sec"}]}
{"smiles": "Cc1c2ccncc2c(C)c2c1[nH]c1ccccc12", "note": "[Ellipticine]", "values": [{"measurement": "AC50", "setting": "[2]; [6]", "result": 2.64, "unit": "µM"}, {"measurement": "AC50", "setting": "[3]; [7]", "result": 19.6, "unit": "µM"}, {"measurement": "AC50", "setting": "[3]; [8]", "result": 19.6, "unit": "µM"}, {"measurement": "PAMPA-BBB Pe", "setting": "[9]", "result": "> 1000 10 × 10^− 6 cm/sec"}, {"measurement": "PAMPA-BBB Pe", "setting": "[4]", "result": ">1000 10^-6 cm/sec"}, {"measurement": "PAMPA-BBB Pe", "setting": "[10]", "result": ">1000 10^-6 cm/sec"}]}
{"smiles": "COc1cc2c(O)c3c(c(-c4ccc5c(c4)OCO5)c2cc1OC)C(=O)OC3", "note": "[NCGC00077816-01]", "values": [{"measurement": "Papp", "setting": "[1]; [4]", "result": 187, "unit": "×10⁻⁶ cm/s"}, {"measurement": "AC50", "setting": "[2]; [5]", "result": 11, "unit": "µM"}, {"measurement": "AC50", "setting": "[3]; [8]", "result": 6.51, "unit": "µM"}]}
{"smiles": "COc1ccc(/C=C/C(=O)c2cc(O)ccc2O)cc1", "note": "[NCGC00096016-04]", "values": [{"measurement": "Papp", "setting": "[1]; [4]", "result": 300, "unit": "×10⁻⁶ cm/s"}, {"measurement": "AC50", "setting": "[2]; [5]", "result": 12.9, "unit": "µM"}, {"measurement": "AC50", "setting": "[3]; [8]", "result": 19.8, "unit": "µM"}, {"measurement": "PAMPA-BBB Pe", "setting": "[10]", "result": "300 10^-6 cm/sec"}]}
{"smiles": "CC1=C[C@H](O)CC(C)(C)[C@H]1/C=C/C(C)=C/C=C/C(C)=C/C=C/C=C(C)/C=C/C=C(C)/C=C/C1=C(C)C[C@@H](O)CC1(C)C", "note": "[Lutein]", "values": [{"measurement": "Papp", "setting": "[1]; [4]", "result": 28, "unit": "×10⁻⁶ cm/s"}, {"measurement": "AC50", "setting": "[2]; [5]", "result": 24.2, "unit": "µM"}, {"measurement": "AC50", "setting": "[3]; [8]", "result": 21.1, "unit": "µM"}]}
{"smiles": "O=c1cc(-c2ccc(O)cc2)oc2cc(O)cc(O)c12", "note": "[Apigenin]", "values": [{"measurement": "Papp", "setting": "[1]; [4]", "result": 36.2, "unit": "×10⁻⁶ cm/s"}, {"measurement": "AC50", "setting": "[2]; [5]", "result": 35.9, "unit": "µM"}, {"measurement": "AC50", "setting": "[3]; [8]", "result": 37.2, "unit": "µM"}, {"measurement": "PAMPA-BBB Pe", "setting": "[10]", "result": "36 10^-6 cm/sec"}]}
{"smiles": "O=C1C=C2C=C[C@@H]3C[C@@]2(O1)[C@H]1CCCCN31", "note": "[Securinine]", "values": [{"measurement": "Papp", "setting": "[1]; [4]", "result": 22, "unit": "×10⁻⁶ cm/s"}, {"measurement": "AC50", "setting": "[2]; [5]", "result": 16.2, "unit": "µM"}, {"measurement": "PAMPA-BBB Pe", "setting": "[10]", "result": "22 10^-6 cm/sec"}]}
{"smiles": "CC=C1CN2CC[C@]34C(=C(C=O)[C@@H]1C[C@H]23)Nc1c(O)cccc14", "note": "[NCGC00160220-01]", "values": [{"measurement": "Papp", "setting": "[1]; [4]", "result": 18.2, "unit": "×10⁻⁶ cm/s"}, {"measurement": "AC50", "setting": "[2]; [5]", "result": 0.157, "unit": "µM"}, {"measurement": "PAMPA-BBB Pe", "setting": "[10]", "result": "18 10^-6 cm/sec"}]}
{"smiles": "C=C[C@@H](C1=CC(=O)C(OC)=C(OC)C1=O)c1ccccc1", "note": "[NCGC00160161-01]", "values": [{"measurement": "Papp", "setting": "[1]; [4]", "result": 69.8, "unit": "×10⁻⁶ cm/s"}, {"measurement": "Papp", "setting": "[1]; [10]", "result": 70, "unit": "×10⁻⁶ cm/s"}, {"measurement": "AC50", "setting": "[2]; [5]", "result": 1.07, "unit": "µM"}, {"measurement": "AC50", "setting": "[3]; [8]", "result": 6.54, "unit": "µM"}]}
